This passage reports GI50 and TGI results from PubChem BioAssay (NCI).

Values joined by “and” are separate entries in the source; they are usually repeats but may differ in a detail not shown here. Equal values may be shown once.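 Step 1: Grow cells in 96-well plates. Step 2: Expose to compound for 48 hours at 5 concentrations. Step 3: Interpolate endpoints linearly; if unreached, use highest concentration. GI50 is the concentration that inhibits growth by half. TGI is the concentration that stops growth completely.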

The first assay concerns TK-10 renal. The assay can be described thus: inhibition of tumour cell growth, NCI panel, 48 h.
For the molecule `O=C(Nc1ccc(OC(F)(F)F)cc1)c1sccc1NCc1ccnc2ccccc12`, the GI50 was 4.87 µM and the TGI was determined as 98.6 µM.

`CCN(CC)c1ccc(NC(=S)NN(C)C)cc1`: the TGI is above 10 µM.

Regarding `COc1ccc(-c2cc(-c3ccc(Cl)cc3)c(C#N)c(=O)n2CCCCC(=O)Nc2ccccc2N)cc1`, the GI50 is 27.9 µM and the TGI was above 100 µM.

For the molecule `CN1CCCN(CCNc2nccc(-c3c(-c4cccc(O)c4)nc4sccn34)n2)S1(=O)=O`, the GI50 was 13 µM and 11.6 µM; the TGI was 64.6 µM and 73.2 µM.

In the case of `CCOC(=O)c1c(NC(=O)c2ccc(C(C)C)cc2)sc2c(CN(C)C)c(O)ccc12`, the GI50 is 3 µM and the TGI was 9.39 µM.

With `COc1ccc(C(=O)N2c3ccccc3Sc3ccccc32)c(F)c1`, the GI50 was 10.4 µM and the TGI was above 100 µM.

For the molecule `CC(O)CNC1=CC(=O)C(=O)c2ccccc21` (stereo not given), the TGI is 70.4 µM.

Turning to `CC1(C)N=C(N)N=C(N)N1c1ccc(CCc2ccccc2)c(Cl)c1`, the GI50 was 1.96 µM and the TGI came to 18.3 µM.

The subject of the next assay is T-47D breast. The assay can be described thus: inhibition of tumour cell growth, NCI panel, 48 h.
As for `COc1ccc(Cl)cc1Nc1nc(C(F)(F)F)ccc1C(=O)NN`, the GI50 is 5.06 µM and the TGI is above 100 µM.

`CC(C)c1ccc2nc3ccc(C(=O)NCCN(C)C)cn3c(=O)c2c1`: the TGI was 38.4 µM.

For `C#C[C@]1(O)CC[C@H]2[C@@H]3CC=C4c5nc(Nc6ccccn6)sc5CC[C@]4(C)[C@H]3CC[C@@]21C`, the GI50 is 1.81 µM and the TGI was found to be 5.98 µM.

Take `CSc1ccc(C2=Nn3c(nnc3-c3ccc(F)c(Cl)c3)SC2)cc1`: the GI50 was 71 µM and the TGI was above 100 µM.

For the molecule `CNC(=O)Nc1ccc(-c2nc(N3CCOCC3)nc3c2cnn3C2CCOCC2)cc1`, the GI50 was 0.0419 µM and the TGI was determined as 0.341 µM.

`NCCCCNCCCNC(=O)CNC(=O)CC(O)C(N)CCCC(NC(=O)C(CN)NC(=O)C(O)CNC(=O)CC(N)c1ccc(O)cc1)C(=O)O` (stereo not given) gave a TGI above 10 µM.

On to `N/C(=N\OC(=O)c1ccccc1)C(C(=O)NOC(=O)c1ccccc1)C1CCCCC1` (stereo not given), for which the GI50 is 7.57 µM and the TGI came out at 28.2 µM.

Turning to `CCOc1ccc(N=Nc2ccc3cc(/C(C)=N/NC(=O)/C(C#N)=C\c4ccc(N(CCC#N)CCC#N)cc4)c(=O)oc3c2)cc1`, the TGI is above 10 µM.

Consider `CC(C)(C)OC(=O)NCC(C#N)CNC(=O)OC(C)(C)C`, for which the TGI was above 100 µM.

Regarding `O=C(Nc1ccc(OC(F)(F)F)cc1)c1sccc1NCc1ccnc2ccccc12`, the GI50 was 2.48 µM and the TGI is above 95.9 µM.

Regarding `CCN(CC)c1ccc(NC(=S)NN(C)C)cc1`, the TGI was above 10 µM.

As to `COc1ccc(-c2cc(-c3ccc(Cl)cc3)c(C#N)c(=O)n2CCCCC(=O)Nc2ccccc2N)cc1`, the GI50 is 4.44 µM and the TGI was above 100 µM.

As for `CN1CCCN(CCNc2nccc(-c3c(-c4cccc(O)c4)nc4sccn34)n2)S1(=O)=O`, the GI50 is 14.2 µM and 11.8 µM; the TGI is 57.1 µM and > 88.7 µM.

Regarding `CCOC(=O)c1c(NC(=O)c2ccc(C(C)C)cc2)sc2c(CN(C)C)c(O)ccc12`, the GI50 is 2.01 µM and the TGI stood at 5.17 µM.

For `COc1ccc(C(=O)N2c3ccccc3Sc3ccccc32)c(F)c1`, the GI50 is 0.639 µM and the TGI is above 100 µM.

For `CC(O)CNC1=CC(=O)C(=O)c2ccccc21` (stereo not given), the TGI came out at 45.2 µM.

Take `CC1(C)N=C(N)N=C(N)N1c1ccc(CCc2ccccc2)c(Cl)c1`: the GI50 was 0.698 µM and the TGI stood at 13 µM.

The subject of the next assay is NCI-H460 lung. The assay can be described thus: inhibition of tumour cell growth, NCI panel, 48 h.
`COc1ccc(Cl)cc1Nc1nc(C(F)(F)F)ccc1C(=O)NN`: the GI50 is 23 µM and the TGI was above 100 µM.

As for `CC(C)c1ccc2nc3ccc(C(=O)NCCN(C)C)cn3c(=O)c2c1`, the TGI stood at 33.7 µM.

With `C#C[C@]1(O)CC[C@H]2[C@@H]3CC=C4c5nc(Nc6ccccn6)sc5CC[C@]4(C)[C@H]3CC[C@@]21C`, the GI50 is 1.21 µM and the TGI was 2.83 µM.

Regarding `CSc1ccc(C2=Nn3c(nnc3-c3ccc(F)c(Cl)c3)SC2)cc1`, the GI50 was 14.6 µM and the TGI was 38.6 µM.

Consider `CNC(=O)Nc1ccc(-c2nc(N3CCOCC3)nc3c2cnn3C2CCOCC2)cc1`, for which the GI50 is 0.131 µM and the TGI was above 100 µM.

With `NCCCCNCCCNC(=O)CNC(=O)CC(O)C(N)CCCC(NC(=O)C(CN)NC(=O)C(O)CNC(=O)CC(N)c1ccc(O)cc1)C(=O)O` (stereo not given), the TGI is above 10 µM.

`N/C(=N\OC(=O)c1ccccc1)C(C(=O)NOC(=O)c1ccccc1)C1CCCCC1` (stereo not given): the GI50 was 2.85 µM and the TGI came to 9.61 µM.

`CCOc1ccc(N=Nc2ccc3cc(/C(C)=N/NC(=O)/C(C#N)=C\c4ccc(N(CCC#N)CCC#N)cc4)c(=O)oc3c2)cc1` registered a TGI above 10 µM.

`CC(C)(C)OC(=O)NCC(C#N)CNC(=O)OC(C)(C)C` yielded a TGI above 100 µM.

With `O=C(Nc1ccc(OC(F)(F)F)cc1)c1sccc1NCc1ccnc2ccccc12`, the GI50 is 4.01 µM and the TGI is above 100 µM.

For the molecule `CCN(CC)c1ccc(NC(=S)NN(C)C)cc1`, the TGI was above 10 µM.

`COc1ccc(-c2cc(-c3ccc(Cl)cc3)c(C#N)c(=O)n2CCCCC(=O)Nc2ccccc2N)cc1`: the GI50 is 4.26 µM and the TGI was 56.6 µM.

As to `CN1CCCN(CCNc2nccc(-c3c(-c4cccc(O)c4)nc4sccn34)n2)S1(=O)=O`, the GI50 is 4.41 µM and 4.72 µM; the TGI was 75 µM and > 75.9 µM.

For the molecule `CCOC(=O)c1c(NC(=O)c2ccc(C(C)C)cc2)sc2c(CN(C)C)c(O)ccc12`, the GI50 is 1.88 µM and the TGI amounted to 3.6 µM.

Take `COc1ccc(C(=O)N2c3ccccc3Sc3ccccc32)c(F)c1`: the GI50 was 0.485 µM and the TGI was above 100 µM.

In turn, `CC(O)CNC1=CC(=O)C(=O)c2ccccc21` (stereo not given) showed a TGI of 30.6 µM.

Regarding `CC1(C)N=C(N)N=C(N)N1c1ccc(CCc2ccccc2)c(Cl)c1`, the GI50 was 0.042 µM and the TGI came out at 11.6 µM.
